Structures are written as SMILES. Activity calls are given as the source filed them. The rule behind the calls is not given here.

From ChEMBL document CHEMBL4732205, “Structure-based optimization identified novel furyl-containing 2,4-diarylaminopyrimidine analogues as ALK/ROS1 dual inhibitors with anti-mutation effects” (Eur J Med Chem, 2021) come the findings set out here.

For assay [1], the system named is KARPAS-299. Nature of the assay: Antiproliferative activity against human KARPAS-299 cells assessed as reduction in cell growth incubated for 72 hrs by MTT assay. The class given is functional, cell-based. The following applies: KARPAS-299, 72 h. (Tetrazolium assays rely on reduction of a dye to a coloured formazan, in cell work by metabolically active cells.)
In assay [2] the test system is NCI-H2228. Kind of assay: Antiproliferative activity against human NCI-H2228 cells assessed as reduction in cell growth incubated for 72 hrs by MTT assay. The class given is functional, cell-based. The following applies: NCI-H2228, 72 h.
Assay [3] has as its system A549. Kind of assay: Antiproliferative activity against human A549 cells assessed as reduction in cell growth incubated for 72 hrs by MTT assay. The class given is functional, cell-based. The following applies: A549, 72 h.
Assay [4] relates to MCF7. Kind of assay: Antiproliferative activity against human MCF7 cells assessed as reduction in cell growth incubated for 72 hrs by MTT assay. The following applies: MCF7, 72 h. The class given is functional, cell-based.
Assay [5] deals with T1, ALK tyrosine kinase receptor (Homo sapiens, UniProt Q9UM73). Nature of the assay: Inhibition of recombinant human N-terminal GST-tagged ALK (1058 to 1620 residues) expressed in baculovirus expression system using Srctide as substrate incubated for 1 hr by mobility shift assay.
Target sequence in this assay (Q9UM73 whole entry, the tested form may be a part): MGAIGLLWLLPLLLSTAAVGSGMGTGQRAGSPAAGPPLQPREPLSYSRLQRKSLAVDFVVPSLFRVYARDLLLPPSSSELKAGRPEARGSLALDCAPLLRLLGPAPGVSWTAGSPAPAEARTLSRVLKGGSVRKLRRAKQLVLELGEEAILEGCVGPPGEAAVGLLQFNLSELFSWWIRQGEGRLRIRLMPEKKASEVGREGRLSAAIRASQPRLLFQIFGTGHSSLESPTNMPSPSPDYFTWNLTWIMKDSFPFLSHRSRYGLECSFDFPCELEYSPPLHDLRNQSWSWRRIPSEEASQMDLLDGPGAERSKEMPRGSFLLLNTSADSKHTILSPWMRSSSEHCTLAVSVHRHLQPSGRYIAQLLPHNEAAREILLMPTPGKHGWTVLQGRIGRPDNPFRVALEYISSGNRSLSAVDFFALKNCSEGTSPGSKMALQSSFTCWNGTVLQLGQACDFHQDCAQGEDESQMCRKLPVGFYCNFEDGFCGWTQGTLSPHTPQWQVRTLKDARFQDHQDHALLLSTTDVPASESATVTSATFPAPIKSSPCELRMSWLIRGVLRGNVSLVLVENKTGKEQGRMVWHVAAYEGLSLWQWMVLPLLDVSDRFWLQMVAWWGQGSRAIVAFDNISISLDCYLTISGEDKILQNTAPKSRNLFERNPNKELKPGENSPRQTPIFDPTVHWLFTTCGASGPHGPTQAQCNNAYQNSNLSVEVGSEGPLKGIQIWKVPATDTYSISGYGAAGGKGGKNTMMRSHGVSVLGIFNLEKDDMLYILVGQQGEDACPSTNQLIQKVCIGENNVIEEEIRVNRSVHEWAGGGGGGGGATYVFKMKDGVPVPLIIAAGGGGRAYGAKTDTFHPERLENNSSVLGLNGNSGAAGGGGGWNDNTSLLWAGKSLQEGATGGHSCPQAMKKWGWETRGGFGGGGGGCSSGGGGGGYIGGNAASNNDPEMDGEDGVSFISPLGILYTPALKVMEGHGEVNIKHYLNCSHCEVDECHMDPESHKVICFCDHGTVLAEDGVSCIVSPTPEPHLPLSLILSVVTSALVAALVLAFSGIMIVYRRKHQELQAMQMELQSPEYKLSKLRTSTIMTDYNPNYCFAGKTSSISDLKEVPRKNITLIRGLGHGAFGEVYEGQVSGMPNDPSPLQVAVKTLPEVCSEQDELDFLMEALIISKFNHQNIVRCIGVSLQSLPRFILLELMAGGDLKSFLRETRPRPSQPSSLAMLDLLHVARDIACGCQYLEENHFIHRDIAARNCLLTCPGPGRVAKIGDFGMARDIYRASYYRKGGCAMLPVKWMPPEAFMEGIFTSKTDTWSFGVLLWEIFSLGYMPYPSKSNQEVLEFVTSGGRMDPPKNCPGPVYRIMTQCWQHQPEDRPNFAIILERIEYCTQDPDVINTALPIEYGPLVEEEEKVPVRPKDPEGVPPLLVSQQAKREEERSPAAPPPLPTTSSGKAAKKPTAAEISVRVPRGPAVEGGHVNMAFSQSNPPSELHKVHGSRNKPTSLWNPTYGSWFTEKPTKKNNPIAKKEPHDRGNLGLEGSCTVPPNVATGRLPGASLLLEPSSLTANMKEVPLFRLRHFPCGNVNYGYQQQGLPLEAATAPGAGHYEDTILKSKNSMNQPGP
Assay [6] concerns the target ALK tyrosine kinase receptor (Homo sapiens, UniProt Q9UM73, L1196M). Nature of the assay: Inhibition of recombinant human N-terminal GST-tagged ALK L1196M mutant (1058 to 1620 residues) expressed in baculovirus expression system using Srctide as substrate incubated for 1 hr by mobility shift assay.
The target in assay [7] is ALK tyrosine kinase receptor (Homo sapiens, UniProt Q9UM73, G1202R). Kind of assay: Inhibition of recombinant human N-terminal GST-tagged ALK G1202R mutant (1058 to 1620 residues) expressed in baculovirus expression system using Srctide as substrate incubated for 1 hr by mobility shift assay.
The target in assay [8] is Proto-oncogene tyrosine-protein kinase ROS (Homo sapiens, UniProt P08922). Nature of the assay: Inhibition of recombinant human N-terminal GST-tagged ROS1 (1883 to 2347 residues) expressed in baculovirus expression system using IRS1 as substrate incubated for 1 hr by mobility shift assay.
In assay [9] the target is Epidermal growth factor receptor (Homo sapiens, UniProt P00533). Kind of assay: Inhibition of recombinant human N-terminal GST-tagged EGFR (669 to 1210 residues) expressed in baculovirus expression system using Srctide as substrate incubated for 1 hr by mobility shift assay.
The subject of assay [10] is ALK tyrosine kinase receptor (Homo sapiens), Q9UM73 [L1196M]. Kind of assay: Potency index, ratio of IC50 of ceritinib to IC50 of compound for inhibition of recombinant human N-terminal GST-tagged ALK L1196M mutant (1058 to 1620 residues) expressed in baculovirus expression system using Srctide as substrate incubated for 1 hr by mobility shift assay.
Assay [11] concerns ALK tyrosine kinase receptor (Homo sapiens), Q9UM73 [G1202R]. Kind of assay: Potency index, ratio of IC50 of ceritinib to IC50 of compound for inhibition of recombinant human N-terminal GST-tagged ALK G1202R mutant (1058 to 1620 residues) expressed in baculovirus expression system using Srctide as substrate incubated for 1 hr by mobility shift assay.
Assay [12] deals with T1, ALK tyrosine kinase receptor. Kind of assay: Inhibition of ALK in human NCI-H2228 cells assessed as reduction in ALK phosphorylation incubated for 24 hrs by Western blot analysis. The class given is cell-based. A general note: Immunoblotting shows a protein as a band on a membrane.
Target sequence in this assay (Q9UM73 19-1620 limits assumed): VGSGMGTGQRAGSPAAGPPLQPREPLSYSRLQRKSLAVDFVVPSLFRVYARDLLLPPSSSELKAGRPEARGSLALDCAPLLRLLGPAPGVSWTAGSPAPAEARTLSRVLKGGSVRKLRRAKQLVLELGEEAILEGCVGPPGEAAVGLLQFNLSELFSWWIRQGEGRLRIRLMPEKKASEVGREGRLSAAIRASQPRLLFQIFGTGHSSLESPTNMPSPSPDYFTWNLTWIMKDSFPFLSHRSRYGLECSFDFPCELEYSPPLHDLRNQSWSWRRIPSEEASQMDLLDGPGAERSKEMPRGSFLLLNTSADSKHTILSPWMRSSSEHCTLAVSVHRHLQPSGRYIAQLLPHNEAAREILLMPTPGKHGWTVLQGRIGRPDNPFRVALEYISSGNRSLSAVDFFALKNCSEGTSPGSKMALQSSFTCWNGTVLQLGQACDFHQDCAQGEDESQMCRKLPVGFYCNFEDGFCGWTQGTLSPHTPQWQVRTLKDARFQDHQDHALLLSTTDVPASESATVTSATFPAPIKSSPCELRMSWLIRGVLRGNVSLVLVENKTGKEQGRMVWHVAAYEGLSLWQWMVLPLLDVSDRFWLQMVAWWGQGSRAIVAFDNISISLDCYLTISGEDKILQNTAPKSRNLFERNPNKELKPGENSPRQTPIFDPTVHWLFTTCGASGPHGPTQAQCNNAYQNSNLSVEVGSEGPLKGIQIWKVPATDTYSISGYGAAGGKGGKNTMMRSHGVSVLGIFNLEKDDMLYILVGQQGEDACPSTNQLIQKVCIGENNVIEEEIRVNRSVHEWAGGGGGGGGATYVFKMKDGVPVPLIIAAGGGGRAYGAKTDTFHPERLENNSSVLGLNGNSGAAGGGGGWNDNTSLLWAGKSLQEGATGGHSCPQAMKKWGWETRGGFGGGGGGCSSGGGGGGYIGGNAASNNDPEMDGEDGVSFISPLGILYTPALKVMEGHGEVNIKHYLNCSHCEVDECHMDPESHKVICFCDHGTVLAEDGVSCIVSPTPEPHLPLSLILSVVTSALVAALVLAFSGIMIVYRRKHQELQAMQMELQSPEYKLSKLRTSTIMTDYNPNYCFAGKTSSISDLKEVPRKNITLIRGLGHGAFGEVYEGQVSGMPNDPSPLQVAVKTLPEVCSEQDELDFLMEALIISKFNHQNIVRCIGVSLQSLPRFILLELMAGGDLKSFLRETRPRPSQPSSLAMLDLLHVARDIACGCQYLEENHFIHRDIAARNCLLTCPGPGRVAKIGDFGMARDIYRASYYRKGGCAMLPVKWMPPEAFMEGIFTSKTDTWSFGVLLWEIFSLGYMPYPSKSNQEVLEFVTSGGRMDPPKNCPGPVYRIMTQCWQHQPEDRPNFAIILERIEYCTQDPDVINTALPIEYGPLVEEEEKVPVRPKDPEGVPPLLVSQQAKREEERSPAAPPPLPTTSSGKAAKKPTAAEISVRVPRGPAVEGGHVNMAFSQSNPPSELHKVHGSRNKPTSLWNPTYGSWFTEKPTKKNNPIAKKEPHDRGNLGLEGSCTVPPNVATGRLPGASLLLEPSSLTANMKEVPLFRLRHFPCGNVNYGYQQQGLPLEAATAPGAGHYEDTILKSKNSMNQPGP
Assay [13] has the same target. Kind of assay: Inhibition of ALK in human NCI-H2228 cells assessed as reduction in ALK phosphorylation at 100 nM incubated for 24 hrs by Western blot analysis relative to control. The assay is classed as cell-based.
Target sequence in this assay (Q9UM73 19-1620 limits assumed): as above
For assay [14] the target is unchanged. Kind of assay: Inhibition of ALK in human NCI-H2228 cells assessed as reduction in Akt phosphorylation at 25 to 100 nM incubated for 24 hrs by Western blot analysis. The assay is classed as cell-based. The following applies: dose 25-100 nM.
Target sequence in this assay (Q9UM73 19-1620 limits assumed): as above
Assay [15] has the same target. Kind of assay: Inhibition of ALK in human NCI-H2228 cells assessed as reduction in Erk phosphorylation at 25 to 100 nM incubated for 24 hrs by Western blot analysis. The assay is classed as cell-based. As to conditions: dose 25-100 nM.
Target sequence in this assay (Q9UM73 19-1620 limits assumed): as above
The target is the same in assay [16]. Kind of assay: Inhibition of ALK in human NCI-H2228 cells assessed as reduction in Akt expression at 25 to 100 nM incubated for 24 hrs by Western blot analysis. The assay is classed as cell-based. As to conditions: dose 25-100 nM.
Target sequence in this assay (Q9UM73 19-1620 limits assumed): as above
For assay [17] the target is unchanged. Kind of assay: Inhibition of ALK in human NCI-H2228 cells assessed as reduction in ERK expression at 25 to 100 nM incubated for 24 hrs by Western blot analysis. The class given is cell-based. The following applies: dose 25-100 nM.
Target sequence in this assay (Q9UM73 19-1620 limits assumed): as above
In assay [18] the test system is NCI-H2228. Kind of assay: Effect on ALK expression in human NCI-H2228 cells at 25 to 100 nM incubated for 24 hrs by Western blot analysis. The assay is classed as functional, cell-based. As to conditions: dose 25-100 nM.
In assay [19] the test system is NCI-H2228. Nature of the assay: Induction of apoptosis in human NCI-H2228 cells assessed as morphological changes incubated for 48 hrs by Hoechst-33258 staining based fluorescence microscopic analysis. The class given is functional, cell-based. As to conditions: dose 30-120 nM.
The subject of assay [20] is NCI-H2228. Nature of the assay: Induction of apoptosis in human NCI-H2228 cells assessed as morphological changes at 30 nM incubated for 48 hrs by AO-EB staining based fluorescence microscopic analysis. The class given is functional, cell-based.
In assay [21] the test system is NCI-H2228. Nature of the assay: Induction of apoptosis in human NCI-H2228 cells assessed as early apoptotic cells by observing morphological changes of cell at 120 nM incubated for 48 hrs by AO-EB staining based fluorescence microscopic analysis. The class given is functional.

Epidermal growth factor receptor, sequence (P00533 whole entry, the tested form may be a part): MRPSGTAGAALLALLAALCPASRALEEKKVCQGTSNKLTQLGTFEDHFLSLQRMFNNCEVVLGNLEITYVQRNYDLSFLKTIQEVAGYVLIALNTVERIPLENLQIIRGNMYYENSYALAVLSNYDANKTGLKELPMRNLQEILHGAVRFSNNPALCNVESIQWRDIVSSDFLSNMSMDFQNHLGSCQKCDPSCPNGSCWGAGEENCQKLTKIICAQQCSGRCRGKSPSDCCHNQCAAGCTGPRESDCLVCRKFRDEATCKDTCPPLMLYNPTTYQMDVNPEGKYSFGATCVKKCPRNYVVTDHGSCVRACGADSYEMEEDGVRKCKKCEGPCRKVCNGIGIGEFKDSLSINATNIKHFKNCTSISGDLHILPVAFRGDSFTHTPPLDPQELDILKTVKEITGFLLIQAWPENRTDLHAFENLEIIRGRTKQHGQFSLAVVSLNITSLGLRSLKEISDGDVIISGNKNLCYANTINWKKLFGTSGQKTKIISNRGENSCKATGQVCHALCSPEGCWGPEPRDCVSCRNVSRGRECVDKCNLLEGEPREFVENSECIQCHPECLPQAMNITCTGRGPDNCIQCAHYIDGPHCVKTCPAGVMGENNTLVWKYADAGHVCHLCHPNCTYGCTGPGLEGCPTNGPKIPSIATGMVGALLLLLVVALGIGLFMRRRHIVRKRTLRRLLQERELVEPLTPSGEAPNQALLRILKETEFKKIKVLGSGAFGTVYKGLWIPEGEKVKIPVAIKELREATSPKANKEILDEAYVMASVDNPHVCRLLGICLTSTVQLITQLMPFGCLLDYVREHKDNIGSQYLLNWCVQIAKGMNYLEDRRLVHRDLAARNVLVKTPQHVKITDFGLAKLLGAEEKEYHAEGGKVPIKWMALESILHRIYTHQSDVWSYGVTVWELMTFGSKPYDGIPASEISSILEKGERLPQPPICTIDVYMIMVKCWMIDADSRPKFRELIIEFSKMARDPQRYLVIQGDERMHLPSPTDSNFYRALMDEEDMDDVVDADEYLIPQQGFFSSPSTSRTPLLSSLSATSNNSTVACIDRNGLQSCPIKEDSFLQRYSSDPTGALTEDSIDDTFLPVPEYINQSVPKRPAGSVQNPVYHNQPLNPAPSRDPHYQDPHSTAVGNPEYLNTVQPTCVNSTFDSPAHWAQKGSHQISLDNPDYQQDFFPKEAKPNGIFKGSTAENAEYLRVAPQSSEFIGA
ALK tyrosine kinase receptor (Homo sapiens, UniProt Q9UM73, G1202R), sequence (Q9UM73 19-1620 G1202R limits assumed): as the sequence (Q9UM73 19-1620 limits assumed) above, with G1184R counted along it
ALK tyrosine kinase receptor (Homo sapiens), Q9UM73 [L1196M], sequence (Q9UM73 whole entry L1196M, looked up, the tested form may be a part): as the sequence (Q9UM73 whole entry, the tested form may be a part) above, with L1196M counted along it
ALK tyrosine kinase receptor (Homo sapiens), Q9UM73 [G1202R], sequence (Q9UM73 whole entry G1202R, the tested form may be a part): as the sequence (Q9UM73 whole entry, the tested form may be a part) above, with G1202R counted along it

Usually IC50 stands for the concentration that gives 50% inhibition. The inhibition is the drop in the measured response relative to a control, in per cent. `COc1cc(SCc2ccc(CN(C)C)o2)ccc1Nc1ncc(Cl)c(Nc2ccccc2NS(C)(=O)=O)n1`: the IC50 in [1] is 20 nM; in assay [2], 110 nM; in assay [3], more than 10000 nM; in assay [4], more than 10000 nM; in assay [5], 2.8 nM; in [6], 2.6 nM. Moreover, the figures for the IC50 in [7], in assay [8] and in assay [9] were 3.8 nM, 2.3 nM and more than 1000 nM, respectively. Moreover, the Ratio IC50 in assay [10] and in assay [11] was 5 throughout. Moreover, the values for the inhibition result in [12] and in assay [13] were “Dose-dependent effect” and 100%, respectively. Further, the inhibition entry in assay [14], in [15], in assay [16] and in assay [17] was “Active” throughout. Moreover, the outcome in assay [18], in assay [20] and in assay [21] was Active. For the same compound, in assay [19], the Activity entry is “Dose-dependent effect”.
Regarding `COc1cc(OCC2CCCO2)ccc1Nc1ncc(Cl)c(Nc2ccccc2NS(C)(=O)=O)n1` (stereo not drawn), the IC50 in assay [1] was 190 nM; in assay [2], 90 nM; in assay [3] it was more than 10000 nM; in assay [4], more than 10000 nM; in [5], 3 nM; in [6] it was 3.3 nM. Further, the IC50 is 2.1 nM in assay [7], 3.7 nM in assay [8] and more than 1000 nM in assay [9].
As to `COc1cc(NCC2CCCO2)ccc1Nc1ncc(Cl)c(Nc2ccccc2NS(C)(=O)=O)n1` (stereo not drawn), the half-maximal inhibitory concentration (IC50) in assay [1] is 250 nM; in [2], 140 nM; in assay [3], 800 nM; in assay [4], more than 10000 nM; in [5] it was 3.2 nM; in assay [6] it was 5.8 nM. Besides, the IC50 was 4.5 nM in assay [7], 4.6 nM in [8] and more than 1000 nM in assay [9].
Regarding `COc1cc(SCc2ccc(CN3CCCC3)o2)ccc1Nc1ncc(Cl)c(Nc2ccccc2NS(C)(=O)=O)n1`, the IC50 in assay [1] was 70 nM; in assay [2], 140 nM; in assay [3], more than 10000 nM; in assay [4], 2810 nM; in assay [5], 3.4 nM; in assay [6] it was 2.8 nM. Further, the IC50 in assay [7] was 3.9 nM; in [8], 4.2 nM; in assay [9] it was more than 1000 nM.
